BigSolDB 2.1

CCc1ccc(C(=O)c2ccccc2C(=O)O)cc1
Settings	solubility (mole fraction)
in 1,4-dioxane, 288.88 K	0.0042
in 1,4-dioxane, 293.97 K	0.0066
in 1,4-dioxane, 298.46 K	0.0091
in 1,4-dioxane, 303.53 K	0.0121
in 1,4-dioxane, 308.09 K	0.0153
in 1,4-dioxane, 313.4 K	0.0195
in 1,4-dioxane, 319.15 K	0.024
in 1,4-dioxane, 322.54 K	0.0278
in 1,4-dioxane, 333.97 K	0.0353
in DMF, 281.2 K	0.343
in DMF, 286.49 K	0.367
in DMF, 290.63 K	0.382
in DMF, 296.42 K	0.42
in DMF, 305.65 K	0.451
in DMF, 314.34 K	0.47
in DMF, 325.55 K	0.507
in DMF, 335.75 K	0.532
in NMP, 280.1 K	0.163
in NMP, 284.15 K	0.175
in NMP, 293.44 K	0.209
in NMP, 303.76 K	0.26
in NMP, 313.15 K	0.315
in NMP, 322.85 K	0.396
in NMP, 334.3 K	0.484
in THF, 281.2 K	0.0064
in THF, 286.49 K	0.0085
in THF, 296.42 K	0.0125
in THF, 305.65 K	0.0178
in THF, 314.34 K	0.0246
in THF, 325.55 K	0.0377
in THF, 330.34 K	0.0442
in THF, 335.75 K	0.0541
in acetone, 280.25 K	0.0015
in acetone, 284.85 K	0.0022
in acetone, 290.87 K	0.0032
in acetone, 299.83 K	0.0054
in acetone, 310.39 K	0.0087
in acetone, 314.89 K	0.0107
in acetone, 319.6 K	0.0132
in acetone, 324.16 K	0.0156
in benzene, 283.05 K	0.0023
in benzene, 288.68 K	0.0037
in benzene, 293.52 K	0.0052
in benzene, 302.78 K	0.0109
in benzene, 313.15 K	0.0228
in benzene, 322.65 K	0.0408
in benzene, 328.38 K	0.0598
in benzene, 332.7 K	0.0793
in ethanol, 282.29 K	0.0733
in ethanol, 289.68 K	0.1
in ethanol, 294.91 K	0.123
in ethanol, 304.6 K	0.164
in ethanol, 314.3 K	0.214
in ethanol, 322.91 K	0.256
in ethanol, 328.65 K	0.289
in ethanol, 338.19 K	0.354
in ethanol, 342.82 K	0.388
in ethyl formate, 280.6 K	0.0014
in ethyl formate, 289.68 K	0.0027
in ethyl formate, 294.91 K	0.0038
in ethyl formate, 299.65 K	0.005
in ethyl formate, 304.6 K	0.006
in ethyl formate, 309.59 K	0.0075
in ethyl formate, 314.3 K	0.0087
in ethyl formate, 318.67 K	0.01
in ethyl formate, 322.91 K	0.0113
in isopropanol, 279.79 K	0.0023
in isopropanol, 284.74 K	0.0037
in isopropanol, 294.05 K	0.0085
in isopropanol, 303.99 K	0.0174
in isopropanol, 313.25 K	0.0305
in isopropanol, 323.37 K	0.0464
in isopropanol, 334.05 K	0.0631
in methanol, 279.9 K	0.0627
in methanol, 285.6 K	0.0827
in methanol, 290.81 K	0.101
in methanol, 295.45 K	0.118
in methanol, 305.56 K	0.164
in methanol, 314.4 K	0.202
in methanol, 323.8 K	0.248
in methanol, 328.69 K	0.273
in methanol, 333.53 K	0.3
in n-propanol, 279.55 K	0.0499
in n-propanol, 288.67 K	0.0777
in n-propanol, 299.23 K	0.121
in n-propanol, 308.86 K	0.168
in n-propanol, 318.93 K	0.223
in n-propanol, 328.62 K	0.279
in n-propanol, 338.45 K	0.344
in n-propanol, 343.15 K	0.387
